Assay type in all cases: cell-based, human
In experiment [1] the test system is drug-resistant CHLA-90 neuroblastoma cancer cell line. The experiment can be described thus: DIMSCAN cytotoxicity dose-response with fenretinide (Examples A, FIGS. 1, 7, 12). The settings on record: at one or more doses, +96 hrs. Here is the method: (§1) Cytotoxicity Assay: Cytotoxicity in cell lines was determined using a fluorescence-based assay employing digital imaging microscopy (DIMSCAN)(after Fragala, et al, Mol Cancer Ther, 6:886-897, 2007). DIMSCAN quantitates viable cells which selectively accumulate fluorescein diacetate and is capable of measuring cytotoxicity over a 4-5 log dynamic range by quantifying total fluorescence per well (which is proportional to viable, clonogenic cells) after eliminating background fluorescence using digital thresholding and eosin Y quenching. Briefly, cell lines were seeded into 96-well plates in 100 µL of complete culture medium (10-20% serum) per well. Cells were incubated overnight in 2%, 5% or 20% oxygen (room air) prior to addition of drugs in […] volumes of complete medium to various final drug concentrations in replicates of 12 wells per concentration. In assays employing D-threo-PPMP, PPMP was employed at a fixed, minimally-toxic, final concentration of 10 μM in each well. Control wells received ethanol (final concentration=0.12%-0.20%) in complete medium equivalent to the maximum final ethanol concentration of drug-treated wells. Plates were incubated at various oxygen concentrations to simulate physiological hypoxia (i.e., 2% oxygen=typical solid tumor oxygen levels; 5%=bone marrow oxygen levels for leukemias; 20% room air=supraphysiological oxygen for comparison with typical laboratory culture conditions). Plates were assayed at 3-4 days after initiating drug exposure depending on the growth properties of each cell line, to allow for maximum cell death and outgrowth of surviving cells. To measure cytotoxicity, FDA (stock solution of 1 mg/ml in DMSO) was added, in 50 µL of complete medium per well, to a final concentration of 10 µg/ml. The plates were incubated for an additional 15-30 minutes at 37 C and then 30 µL of eosin Y (0.5% in normal saline) was added per well. Total fluorescence of each well was then measured using digital imaging microscopy. […]

Experiment [2] has as its system CHLA-266 brain cancer (PNET) cell line. The experiment can be described thus: DIMSCAN cytotoxicity dose-response with fenretinide (Examples A, FIGS. 2, 8, 13). Particulars: 2% oxygen, at one or more doses, +96 hrs. Here is the method: as §1
In experiment [3] the test system is MCF-7/ADR (OVCAR-8/ADR) ovarian cancer cell line. As to the kind of experiment: DIMSCAN cytotoxicity dose-response with fenretinide (Examples A, FIG. 16). Particulars: 2% oxygen, at one or more doses, +96 hrs. Here is the method: Cytotoxicity Assay: Cytotoxicity in cell lines was determined using a fluorescence-based assay employing digital imaging microscopy (DIMSCAN)(after Fragala, et al, Mol Cancer Ther, 6:886-897, 2007). DIMSCAN quantitates viable cells which selectively accumulate fluorescein diacetate and is capable of measuring cytotoxicity over a 4-5 log dynamic range by quantifying total fluorescence per well (which is proportional to viable, clonogenic cells) after eliminating background fluorescence using digital thresholding and eosin Y quenching. Briefly, cell lines were seeded into 96-well plates in 100 µL of complete culture medium (10-20% serum) per well. Cells were incubated overnight in 2%, 5% or 20% oxygen (room air) prior to addition of drugs in […] volumes of complete medium to various final drug concentrations in replicates of 12 wells per concentration. In assays employing D-threo-PPMP, PPMP was employed at a fixed, minimally-toxic, final concentration of 10 μM in each well. Control wells received ethanol (final concentration=0.12%-0.20%) in complete medium equivalent to the maximum final ethanol concentration of drug-treated wells. […] Total fluorescence of each well was then measured using digital imaging microscopy. […]

Turning to `CCCCCCCCCCCCCC[C@H](O)[C@@H](N)CO` [C17, (2S,3S)-2-amino-1,3-heptadecanediol], the “C.I. (Combination Index) with fenretinide” value (shortened to “C.I. (Combination Index)”) in experiment [1] and in experiment [2] was less than 1 each time.
As to `CCCCCCCCCCCCCCCCC[C@H](O)[C@@H](N)CO` [C20, (2S,3S)-2-amino-1,3-icosanediol], the “C.I. (Combination Index)” value in experiment [1], in experiment [2] and in experiment [3] was less than 1 in each case.
On to `CCCCCCCCCCCCCCCC[C@H](O)[C@@H](N)CO` [C19, (2S,3S)-2-amino-1,3-nonadecanediol], for which the “C.I. (Combination Index)” value in experiment [1] and in experiment [2] was less than 1 each time.

Source of the values: patent publication US20110152267A1, “Compositions and Methods for Treating Hyperproliferative Disorders” (Texas Tech University System, priority 2009, published 2011).
